Results: patent US10604512B2, “3-(1H-indol-2-yl)-1H-indazoles and therapeutic uses thereof” (Samumed, LLC, priority 2015, dated 2020)

Experiments:
Assay type in all cases: cell-based
[1] = system: Primary human fibroblasts derived from IPF patients (LL29 cells) treated with TGF-β1; assay: Inhibition of the fibrotic process: αSMA staining in TGF-β1-treated primary human fibroblasts from IPF patients (LL29 cells); conditions: Fibroblast, 96 h, % αSMA-positive LL29 cells, TGF-β1 20 ng/mL, 4 days
Source text: Representative compounds were screened using primary human fibroblasts (derived from IPF patients) treated with TGF-β1 to determine their ability to inhibit the fibrotic process.
Primary human fibroblasts derived from IPF patients (LL29 cells) [^1Xiaoqiu Liu, et. al., “Fibrotic Lung Fibroblasts Show Blunted Inhibition by cAMP Due to Deficient cAMP Response Element-Binding Protein Phosphorylation”, Journal of Pharmacology and Experimental Therapeutics (2005), 315(2), 678-687; ^2Watts, K. L., et. al., “RhoA signaling modulates cyclin D1 expression in human lung fibroblasts; implications for idiopathic pulmonary fibrosis”, Respiratory Research (2006), 7(1), 88] were obtained from American Type Culture Collection (ATCC) and expanded in F12 medium supplemented with 15% Fetal Bovine Serum and Penicillin/Streptomycin.
Each compound was dissolved in DMSO as a 10 mM stock and used to prepare compound source plates. Serial dilution (1:2, 11-point dose-response curves from 10 μM to […]) and compound transfer was performed using the ECHO 550 (Labcyte, Sunnyvale, Calif.) into 384-well clear bottom assay plates (Greiner Bio-One) with appropriate DMSO backfill for a final DMSO concentration of 0.1%. LL29 cells are plated at 1,500 cells/well in 80 μL/well F12 medium supplemented with 1% Fetal Bovine Serum. One hour after addition of the cells, TGF-β1 (Peprotech; 20 ng/mL) was added to the plates to induce fibrosis (ref 1 and 2 above). Wells treated with TGF-β1 and containing DMSO were used as controls. Cells were incubated at 37° C. and 5% CO2 for 4 days. Following incubation for 4 days, SYTOX green nucleic acid stain (Life Technologies [Thermo Fisher Scientific]) was added to the wells at a final concentration of 1 μM and incubated at room temperature for 30 min. Cells were then fixed using 4% formaldehyde (Electron Microscopy Sciences), washed 3 times with PBS followed by blocking and permeabilization using 3% Bovine Serum Albumin (BSA; Sigma) and 0.3% Triton X-100 (Sigma) in PBS. Cells were then stained with antibody specific to α-smooth muscle actin (αSMA; Abcam) (ref 1 and 2 above) in 3% Bovine Serum Albumin (BSA; Sigma) and 0.3% Triton X-100 (Sigma) in PBS, and incubated overnight at 4° C. Cells were then washed 3 times with PBS, followed by incubation with Alexa Flor-647 conjugated secondary antibody (Life Technologies [Thermo Fisher Scientific]) and DAPI at room temperature for 1 hour. Cells were then washed 3 times with PBS and plates were sealed for imaging. αSMA staining was imaged by excitation at 630 nm and emission at 665 nm and quantified using the Compartmental Analysis program on the CellInsight CX5 (Thermo Scientific). Dead or apoptotic cells were excluded from analysis based on positive SYTOX green staining. % of total cells positive for αSMA were counted in each well and normalized to the average of 11 wells treated with TGF-β1 on the same plate using Dotmatics' Studies Software. The normalized averages (fold change over untreated) of 3 replicate wells for each compound concentration were used to create dose-responses curves and EC50 values were calculated using non-linear regression curve fit in the Dotmatics' Studies Software. For EC50 of >10 μM, the percent inhibition at 10 μM is provided.

SW480 colon cancer cells = assay: Cell viability assay (CellTiter-Blue) in SW480 colon cancer cells; conditions: Homo sapiens, 96 h, four days, CellTiter-Blue
Procedure: Representative compounds were screened using the following assay procedure to assess the effect on cell viability as described below.
Each compound was dissolved in DMSO as a 10 mM stock and used to prepare compound source plates. Serial dilution (1:3, 8-point dose-response curves from 10 μM to 0.0045 μM) and compound transfer was performed using the ECHO 550 (Labcyte, Sunnyvale, Calif.) into 96-well clear bottom, black-walled plates (Corning-Costar).
Approximately 2×10^3 SW480 colon cancer cells were seeded into each well and allowed to incubate in the presence or absence of compound for four days at 37° C./5% CO2. Eight replicates of DMSO-treated cells served as controls and cells treated with compound were performed in duplicate.
After incubation, 20 μL of CellTiter-Blue (Promega) was added to each well allowed to incubate for approximately 3 hours. This reagent was a buffered solution which contains resazurin, metabolically active cells were able to reduce rezarurin (blue) into resorufin (pink) which was highly fluorescent. This measured fluorescence was used as a readout for cell viability.
After incubation, the plates were read at Ex 560 nm Em 590 nm (Cytation 3, BioTek). Dose-response curves were generated and EC50 concentration values were calculated using non-linear regression curve fit in the GraphPad Prism (San Diego, Calif.) or Dotmatics' Studies Software (Bishops Stortford, UK). For EC50 of >10 μM, the percent inhibition at 10 μM is provided.

IL-6 = assay: Inhibition of IL-6 in LPS-stimulated THP-1 human monocyte cells (HTRF); conditions: for EC50: IL-6 inhibition, LPS-stimulated THP-1 cells, HTRF
Procedure: Human monocyte cell line (THP-1 cells; Catalog # TIB-202, ATCC, Manassas, Va.) were cultured in Roswell Park Memorial Institute (RPMI) 1640 Medium (Catalog #21870-100, Buffalo, N.Y.) with 1% L-glutamine, 1% HEPES, 1% Sodium Pyruvate, 2% Sodium Bicarbonate supplemented with 100 units/mL penicillin, 50 μg/mL streptomycin, 2-mercaptoethanol (0.05 mM) [basal medium] and 10% fetal bovine serum (Catalog #16140089, Life Technologies, Carlsbad, Calif.) at 37° C. and 5% CO2.
THP-1 cells were cultured in basal media with 1% FBS for 24 hours before the start of the assay. Each compound was dissolved in DMSO as a 10 mM stock and used to prepare compound source plates. Serial dilution (1:3, 10-point dose-response curves starting from 10 μM) and compound transfer was performed using the ECHO 550 (Labcyte, Sunnyvale, Calif.) into 384-well white low volume assay plates (Greiner Bio-One) with appropriate DMSO backfill for a final DMSO concentration of 0.1%. THP-1 cells were plated at 5000 cells/well in the 384-well plates and incubated at 37° C. for 2 h. 500 ng/mL of LPS was added after 2 hours and cells were incubated for another 22 hours at 37° C. Plates were spun in a centrifuge for 1 minute at […] and a mixture of anti-IL6 XL665, and anti-IL6 Cryptate diluted in reconstitution buffer (Cisbio Inc.) was added to each well. Following incubation for 3 hrs at room temperature, Homogeneous Time-Resolved Fluorescence (HTRF) was measured using the Envision (Perkin Elmer) at 665 nm and […]. The ratio of fluorescence at 665 nm to 620 nm was used as a readout for IL6 quantification. All samples were processed in duplicate. Readings were normalized to DMSO treated cells and normalized activities were utilized for EC50 calculations using the dose-response log (inhibitor) vs. response variable slope (four parameters) nonlinear regression feature available in GraphPad Prism 5.0 (or Dotmatics). For EC50 of >10 μM, the percent inhibition at 10 μM is provided.

[2] = system: Wnt activity (Sp5-Luc reporter, TCF/LEF binding sites) in SW480 colon carcinoma cells; assay: Screening assay for Wnt activity: Sp5-Luc reporter gene assay in stably transduced SW480 colon carcinoma cells; conditions: Homo sapiens, overnight incubation, 10-point curve from 10 μM
Source text: The screening assay for Wnt activity is described as follows. Reporter cell lines can be generated by stably transducing cancer cell lines (e.g., colon cancer) or primary cells (e.g., IEC-6 intestinal cells) with a lentiviral construct that includes a Wnt-responsive promoter driving expression of the firefly luciferase gene.
SW480 colon carcinoma cells were transduced with a lentiviral vector expressing luciferase with a human Sp5 promoter consisting of a sequence of eight TCF/LEF binding sites. SW480 cells stably expressing the Sp5-Luc reporter gene and a hygromycin resistance gene were selected by treatment with 150 μg/mL of hygromycin for 7 days. These stably transduced SW480 cells were expanded in cell culture and used for all further screening activities. Each compound was dissolved in DMSO as a 10 mM stock and used to prepare compound source plates. Serial dilution (1:3, 10-point dose-response curves starting from 10 μM) and compound transfer was performed using the ECHO 550 (Labcyte, Sunnyvale, Calif.) into 384-well white solid bottom assay plates (Greiner Bio-One) with appropriate DMSO backfill for a final DMSO concentration of 0.1%. For Sp5-Luc reporter gene assays, the cells were plated at 4,000 cells/well in 384-well plates with medium containing 1% fetal bovine serum and incubated overnight at 37° C. and 5% CO2. Following incubation, 20 μl of BrightGlo luminescence reagent (Promega) was added to each well of the 384-well assay plates. The plates were placed on an orbital shaker for 2 min and then luminescence was quantified using the Envision (Perkin Elmer) plate reader. Readings were normalized to DMSO only treated cells, and normalized activities were utilized for EC50 calculations using the dose-response log (inhibitor) vs. response variable slope (four parameters) nonlinear regression feature available in GraphPad Prism 5.0 (or Dotmatics). For EC50 of >10 μM, the percent inhibition at 10 μM is provided.

| SMILES | EC50 [1] [nM] | EC50 (SW480 colon cancer cells) [nM] | EC50 (IL-6) [nM] | EC50 [2] [nM] | inhibition at 10 µM (IL-6; THP-1, printed beside >10 μM EC50, top concentration 10 μM, meaning not given, read-out: percentage in parentheses after EC50 >10) [%] |
| --- | --- | --- | --- | --- | --- |
| Cc1ccncc1-c1ccc2[nH]nc(-c3cc4c(-c5cccc(F)c5)cccc4[nH]3)c2c1 [Compound 5, 3-(4-(3-Fluorophenyl)-1H-indol-2-yl)-5-(4-methylpyridin-3-yl)-1H-indazole] | 737 | 563 | 834 | 300 |  |
| Fc1cccc(-c2cccc3[nH]c(-c4n[nH]c5ccc(-c6cncc(CN7CCC(F)(F)C7)c6)cc45)cc23)c1 [Compound 26, 5-(5-((3,3-diFluoropyrrolidin-1-yl)methyl)pyridin-3-yl)-3-(4-(3-fluorophenyl)-1H-indol-2-yl)-1H-indazole] | 815 | 4090 | 1220 | 495 |  |
| O=C(Nc1cncc(-c2ccc3[nH]nc(-c4cc5c(-c6ccc(F)cc6)cccc5[nH]4)c3c2)c1)C1CCC1 [Compound 49, N-(5-(3-(4-(4-Fluorophenyl)-1H-indol-2-yl)-1H-indazol-5-yl)pyridin-3-yl) cyclobutanecarboxamide] | 778 | 2600 | 35 | 190 |  |
| CC(C)C(=O)Nc1cncc(-c2ccc3[nH]nc(-c4cc5c(-c6ccccc6F)cccc5[nH]4)c3c2)c1 [Compound 65, N-(5-(3-(4-(2-Fluorophenyl)-1H-indol-2-yl)-1H-indazol-5-yl)pyridin-3-yl) isobutyramide] | 305 | 981 | 105 | 1160 |  |
| Fc1ccccc1-c1cccc2[nH]c(-c3n[nH]c4ccc(-c5cncc(CN6CCCCC6)c5)cc34)cc12 [Compound 71, 3-(4-(2-Fluorophenyl)-1H-indol-2-yl)-5-(5-(piperidin-1-ylmethyl)pyridin-3-yl)-1H-indazole] | 2550 | 2170 | 3110 | 1160 |  |
| CCCCC(=O)Nc1cncc(-c2ccc3[nH]nc(-c4cc5c(-c6ccccc6F)cccc5[nH]4)c3c2)c1 [Compound 75, N-(5-(3-(4-(2-Fluorophenyl)-1H-indol-2-yl)-1H-indazol-5-yl)pyridin-3-yl) pentanamide] | 1980 | 4800 | 1000 | 1960 |  |
| Fc1ccccc1-c1cccc2[nH]c(-c3n[nH]c4ccc(-c5cncc(CN6CCC(F)(F)C6)c5)cc34)cc12 [Compound 82, 5-(5-((3,3-Difluoropyrrolidin-1-yl)methyl)pyridin-3-yl)-3-(4-(2-fluorophenyl)-1H-indol-2-yl)-1H-indazole] | 2260 | 5240 | 4300 | 2980 |  |
| Fc1ccccc1-c1cccc2[nH]c(-c3n[nH]c4ccc(-c5ccccn5)cc34)cc12 [Compound 84, 3-(4-(2-Fluorophenyl)-1H-indol-2-yl)-5-(pyridin-2-yl)-1H-indazole] | 6740 | 4200 | 2380 | 2880 |  |
| CC(C)(C)C(=O)Nc1cncc(-c2ccc3[nH]nc(-c4cc5c(-c6cccnc6)cccc5[nH]4)c3c2)c1 [Compound 92, N-(5-(3-(4-(Pyridin-3-yl)-1H-indol-2-yl)-1H-indazol-5-yl)pyridin-3-yl) pivalamide] | 612 | 1320 | 153 | 140 |  |
| CC(C)Nc1cncc(-c2ccc3[nH]nc(-c4cc5c(-c6cccnc6)cccc5[nH]4)c3c2)c1 [Compound 96, N-Isopropyl-5-(3-(4-(pyridin-3-yl)-1H-indol-2-yl)-1H-indazol-5-yl)pyridin-3-amine] | 162 | 1140 | 163 | 100 |  |
| COc1cncc(-c2ccc3[nH]nc(-c4cc5c(-c6ccc(C)s6)cccc5[nH]4)c3c2)c1 [Compound 768, 5-(5-Methoxypyridin-3-yl)-3-(4-(5-methylthiophen-2-yl)-1H-indol-2-yl)-1H-indazole] |  | 1100 | > 10000 | 250 | 49.8 |
